One assay concerns S. aureus FDA-209-p. As to the kind of experiment: Antimicrobial activity test: MIC by the agar plate dilution method, S. aureus FDA-209-p. The assay is classed as cell-based, Staphylococcus aureus. The following applies: inoculum 1×10^6 cells/ml. Here is the method:
(§1) In order to investigate the in vitro activity of the under-mentioned compounds against various bacteria, the minimal inhibitory concentration (MIC) values were determined by the agar plate dilution method [see Chemotherapy, 22, 1126-1128 (1974)].
(§2) Each test inoculum was adjusted to 1×10^6 cells/ml (O.D., 600 mμ: 0.07-0.16).

For a further assay, the system named is E. coli No. 29. As to the kind of experiment: Antimicrobial activity test: MIC by the agar plate dilution method, E. coli No. 29. In kind it is cell-based. Here is the method: as §1, §2
A further assay has as its system K. pneumoniae NCTC-9632. As to the kind of experiment: Antimicrobial activity test: MIC by the agar plate dilution method, K. pneumoniae NCTC-9632. The following applies: inoculum 1×10^6 cells/ml. The assay is classed as cell-based. Here is the method:
as §1, §2

The subject of the next assay is P. mirabilis 1287. As to the kind of experiment: Antimicrobial activity test: MIC by the agar plate dilution method, P. mirabilis 1287. The assay is classed as cell-based. As for the experimental part: as §1, §2
The next assay deals with M. morganii ATCC-25830. As to the kind of experiment: Antimicrobial activity test: MIC by the agar plate dilution method, M. morganii ATCC-25830. In kind it is cell-based. Particulars: inoculum 1×10^6 cells/ml. Here is the method:
as §1, §2

For a further assay, the system named is S. marcescens IFO-12648. As to the kind of experiment: Antimicrobial activity test: MIC by the agar plate dilution method, S. marcescens IFO-12648. The assay is classed as cell-based. Here is the method:
as §1, §2

The next assay deals with P. aeruginosa NCTC-10490. As to the kind of experiment: Antimicrobial activity test: MIC by the agar plate dilution method, P. aeruginosa NCTC-10490. The assay is classed as cell-based. Particulars: inoculum 1×10^6 cells/ml. Here is the method:
as §1, §2

[1] abbreviates: P. mirabilis 1287, inoculum 1×10^6 cells/ml.
[2] abbreviates: E. coli No. 29, inoculum 1×10^6 cells/ml.
[3] abbreviates: S. marcescens IFO-12648, inoculum 1×10^6 cells/ml.

Read-outs that look alike come from different tables or passages of the source. Some results are limits rather than exact numbers.

“1-Acetoxyethyl 7-[2-(2-aminothiazol-4-yl)-2-methoxyiminoacetamido]-3-[(1,3,4-thiadiazol-2-yl)thiomethyl]-Δ^3 -O-2-isocephem-4-carboxylate (syn-isomer) [Example 13]”: the minimal inhibitory concentration (MIC) against S. aureus FDA-209-p came out at 0.39 µg/mL; against E. coli No. 29, 0.39 µg/mL; with K. pneumoniae NCTC-9632, 0.78 µg/mL; in the assay on P. mirabilis 1287 (setting [1]) it was 0.1 µg/mL; against M. morganii ATCC-25830, 0.39 µg/mL; against S. marcescens IFO-12648, 0.78 µg/mL. Further, in the assay with P. aeruginosa NCTC-10490, the MIC was found to be 0.78 µg/mL.
In the case of “7-2-(Thiazol-4-yl)-2-tert-butoxycarbonylmethoxyiminoacetamido]-Δ^3 -O-2-isocephem-4-carboxylic acid (syn-isomer) [Example 19]”, the MIC was 0.39 µg/mL against S. aureus FDA-209-p; no more than 0.025 µg/mL in the assay with E. coli No. 29 (setting [2]); no more than 0.025 µg/mL against K. pneumoniae NCTC-9632; no more than 0.025 µg/mL against P. mirabilis 1287 (setting [1]); no more than 0.025 µg/mL in the assay on M. morganii ATCC-25830; 0.05 µg/mL against S. marcescens IFO-12648 (setting [3]). The minimal inhibitory concentration (MIC) in the assay with P. aeruginosa NCTC-10490 turned out to be 3.13 µg/mL.
“7-[2-(2-Aminothiazol-4-yl)-2-(2-chloroethoxy)iminoacetamido]-3-[(1,3,4-thiadiazol-2-yl)thiomethyl]-Δ^3 -O-2-isocephem-4-carboxylic acid (syn-isomer) [No. 9]”: the MIC was 0.05 µg/mL with S. aureus FDA-209-p; 0.2 µg/mL against E. coli No. 29 (setting [2]); 0.39 µg/mL in the assay on K. pneumoniae NCTC-9632; 0.39 µg/mL in the assay on P. mirabilis 1287; 0.78 µg/mL with M. morganii ATCC-25830; 0.78 µg/mL in the assay on S. marcescens IFO-12648. The substance further came in with a minimal inhibitory concentration (MIC) against P. aeruginosa NCTC-10490 of 0.78 µg/mL.
As to “7-[2-(2-Aminothiazol-4-yl)-2-[(2-butenyl)oxyimino]acetamido]-3-[(1,3,4-thiadiazol-2-yl)thiomethyl]-Δ^3 -O-2-isocephem-4-carboxylic acid trifluoroacetate (syn-isomer) [Example 38]”, the minimal inhibitory concentration (MIC) against S. aureus FDA-209-p came to 0.39 µg/mL; in the assay on E. coli No. 29 (setting [2]), 0.1 µg/mL; with K. pneumoniae NCTC-9632 it was 0.2 µg/mL; in the assay with P. mirabilis 1287 (setting [1]) it was 0.2 µg/mL; in the assay on M. morganii ATCC-25830, 0.39 µg/mL; with S. marcescens IFO-12648, 0.78 µg/mL. In addition, the MIC against P. aeruginosa NCTC-10490 is 1.56 µg/mL.
Turning to “7-[2-(2-Aminothiazol-4-yl)-2-[(3-butenyl)oxyimino]acetamido]-3-[(1,3,4-thiadiazol-2-yl)thiomethyl-]-Δ^3 -O-2-isocephem-4-carboxylic acid trifluoroacetate (syn-isomer) [Example 40]”, the MIC is 6.25 µg/mL against S. aureus FDA-209-p; 3.13 µg/mL in the assay on E. coli No. 29; 3.13 µg/mL against K. pneumoniae NCTC-9632; 6.25 µg/mL against P. mirabilis 1287 (setting [1]); 3.13 µg/mL in the assay on M. morganii ATCC-25830; 12.5 µg/mL in the assay on S. marcescens IFO-12648 (setting [3]). Further, in the assay with P. aeruginosa NCTC-10490, the MIC amounted to 25 µg/mL.
For “7-[2-(2-Chloroacetamidothiazol-4-yl)-2-allyloxyiminoacetamido]-3-[(1,3,4-thiadiazol-2-yl)thiomethyl]-Δ^3 -O-2-isocephem-4-carboxylic acid (syn-isomer) [Example 15]”, the MIC is 0.39 µg/mL in the assay on S. aureus FDA-209-p; no more than 0.025 µg/mL with E. coli No. 29 (setting [2]); 0.1 µg/mL in the assay with K. pneumoniae NCTC-9632; no more than 0.025 µg/mL against P. mirabilis 1287 (setting [1]); no more than 0.025 µg/mL with M. morganii ATCC-25830; 0.1 µg/mL with S. marcescens IFO-12648 (setting [3]). In the assay with P. aeruginosa NCTC-10490, the minimal inhibitory concentration (MIC) was determined as 0.78 µg/mL.
Turning to “7-[2-(2-Chloroacetamidothiazol-4-yl)-2-cyclopentyloxyiminoacetamido]-3-[(1,3,4-thiadiazol-2-yl)thiomethyl]-Δ^3 -O-2-isocephem-4-carboxylic acid (syn-isomer) [Example 26]”, the MIC against S. aureus FDA-209-p is 0.2 µg/mL; against E. coli No. 29 (setting [2]), 0.05 µg/mL; against K. pneumoniae NCTC-9632 it was 0.2 µg/mL; in the assay with P. mirabilis 1287 (setting [1]) it was no more than 0.025 µg/mL; in the assay on M. morganii ATCC-25830, 0.05 µg/mL; against S. marcescens IFO-12648, 0.39 µg/mL. The substance also came in with an MIC with P. aeruginosa NCTC-10490 of 0.39 µg/mL.
As for “7-[2-(2-Chloroacetamidothiazol-4-yl)-2-methoxyiminoacetamido]-3-[(1,4,5,6-tetrahydro-4-methyl-5,6-dioxo-1,2,4-triazin-3-yl)thiomethyl]-Δ^3 -O-2-isocephem-4-carboxylic acid (syn-isomer) [Example 17]”, the MIC against S. aureus FDA-209-p is 0.2 µg/mL; in the assay on E. coli No. 29 (setting [2]), no more than 0.025 µg/mL; in the assay on K. pneumoniae NCTC-9632, no more than 0.025 µg/mL; against P. mirabilis 1287 (setting [1]) it was no more than 0.025 µg/mL; in the assay on M. morganii ATCC-25830, no more than 0.025 µg/mL; in the assay on S. marcescens IFO-12648 (setting [3]) it was no more than 0.025 µg/mL. For the same substance, the MIC against P. aeruginosa NCTC-10490 stood at 6.25 µg/mL.
In the case of “7-[2-(2-Chloroacetamidothiazol-4-yl)-2-methoxyiminoacetamido]-3-[(carbamoyloxy)methyl]-Δ^3 -O-2-isocephem-4-carboxylic acid (syn-isomer) [Example 8]”, the MIC is 0.78 µg/mL in the assay on S. aureus FDA-209-p; 0.2 µg/mL with E. coli No. 29 (setting [2]); 0.2 µg/mL against K. pneumoniae NCTC-9632; 0.05 µg/mL against P. mirabilis 1287 (setting [1]); 0.1 µg/mL in the assay on M. morganii ATCC-25830; 0.39 µg/mL with S. marcescens IFO-12648. Also, the minimum inhibitory concentration (MIC) in the assay on P. aeruginosa NCTC-10490 was 1.56 µg/mL.
In the case of “7-[2-(2-Formamidothiazol-4-yl)-2-ethoxyiminoacetamido]-3-[(1,3,4-thiadiazol-2-yl)thiomethyl-]-Δ^3 -O-2-isocephem-4-carboxylic acid (syn-isomer) [Example 31]”, the MIC against S. aureus FDA-209-p is 0.39 µg/mL; in the assay on E. coli No. 29 (setting [2]), no more than 0.025 µg/mL; with K. pneumoniae NCTC-9632, 0.1 µg/mL; in the assay with P. mirabilis 1287 (setting [1]), no more than 0.025 µg/mL; with M. morganii ATCC-25830, 0.05 µg/mL; against S. marcescens IFO-12648 it was 0.39 µg/mL. The minimal inhibitory concentration (MIC) in the assay with P. aeruginosa NCTC-10490 came to 25 µg/mL.
Take “7-[2-(2-Trichloroacetamidothiazol-4-yl)-2-methoxyiminoacetamido]-3-[(carbamoyloxy)methyl]-Δ^3 -O-2-isocephem-4-carboxylic acid (syn-isomer) [Example 7]”: the MIC was 0.78 µg/mL against S. aureus FDA-209-p; 0.1 µg/mL against E. coli No. 29 (setting [2]); 0.2 µg/mL with K. pneumoniae NCTC-9632; no more than 0.025 µg/mL with P. mirabilis 1287 (setting [1]); no more than 0.025 µg/mL against M. morganii ATCC-25830; 0.39 µg/mL against S. marcescens IFO-12648. The MIC against P. aeruginosa NCTC-10490 came out at 0.78 µg/mL.
For the substance “7-[2-(Thiazol-4-yl)-2-carboxymethoxyiminoacetamido]-Δ^3 -O-2-isocephem-4-carboxylic acid (syn-isomer) [No. 6]”, the minimum inhibitory concentration (MIC) with S. aureus FDA-209-p is 0.39 µg/mL; against E. coli No. 29 (setting [2]), 0.1 µg/mL; against K. pneumoniae NCTC-9632, 0.2 µg/mL; with P. mirabilis 1287 (setting [1]) it was no more than 0.025 µg/mL; in the assay on M. morganii ATCC-25830 it was 0.05 µg/mL; against S. marcescens IFO-12648 (setting [3]) it was 0.2 µg/mL. This substance also showed a minimum inhibitory concentration (MIC) with P. aeruginosa NCTC-10490 of 12.5 µg/mL.
For the substance “Benzhydryl 7-[2-(2-formamidothiazol-4-yl)-2-methylthiomethoxyiminoacetamido]-3-[(1,3,4-thiadiazol-2-yl)thiomethyl]-Δ^3 -O-2-isocephem-4-carboxylate (syn-isomer) [Example 44]”, the minimum inhibitory concentration (MIC) against S. aureus FDA-209-p was determined as 0.39 µg/mL; in the assay with E. coli No. 29, 0.2 µg/mL; in the assay on K. pneumoniae NCTC-9632, 0.39 µg/mL; with P. mirabilis 1287 it was 0.2 µg/mL; against M. morganii ATCC-25830, 0.78 µg/mL; in the assay on S. marcescens IFO-12648 it was 1.56 µg/mL. In the assay with P. aeruginosa NCTC-10490, this substance gave a minimal inhibitory concentration (MIC) of 3.13 µg/mL.
On to “Benzhydryl 7-[2-(2-tritylaminothiazol-4-yl)-2-(2fluoroethoxy)iminoacetamido-]-3-[(1,3,4-thiadiazol-2-yl)thiomethyl]-Δ^3 -O-2-isocephem-4-carboxylate (syn-isomer) [Example 48]”, for which the MIC was 0.78 µg/mL in the assay with S. aureus FDA-209-p; no more than 0.025 µg/mL against E. coli No. 29 (setting [2]); 0.2 µg/mL in the assay with K. pneumoniae NCTC-9632; no more than 0.025 µg/mL with P. mirabilis 1287 (setting [1]); no more than 0.025 µg/mL in the assay with M. morganii ATCC-25830; 0.39 µg/mL against S. marcescens IFO-12648. Also, the MIC in the assay on P. aeruginosa NCTC-10490 was determined as 6.25 µg/mL.
Take “Benzhydryl 7-[2-(2-tritylaminothiazol-4-yl)-2-[(1-tritylpyrazol-3-yl)methoxyiminoacetamido]-3-[(1,3,4-thiadiazol-2-yl)thiomethyl]-Δ^3 -O-2-isocephem-4-carboxylate (syn-isomer) [Example 23]”: the minimum inhibitory concentration (MIC) in the assay with S. aureus FDA-209-p is 6.25 µg/mL; against E. coli No. 29 (setting [2]) it was 0.2 µg/mL; against K. pneumoniae NCTC-9632 it was 0.1 µg/mL; in the assay with P. mirabilis 1287 (setting [1]), no more than 0.025 µg/mL; in the assay with M. morganii ATCC-25830 it was 0.1 µg/mL; against S. marcescens IFO-12648, 0.39 µg/mL. This substance came in with a minimum inhibitory concentration (MIC) against P. aeruginosa NCTC-10490 of 12.5 µg/mL.
As for “Benzhydryl 7-[2-(2-tritylaminothiazol-4-yl)-2-[(2-butenyl)oxyimino]acetamido]-3-[(1,3,4-thiadiazol-2-yl)thiomethyl]-Δ^3 -O-2-isocephem-4-carboxylate (syn-isomer) [Example 37]”, the MIC with S. aureus FDA-209-p stood at 0.78 µg/mL; in the assay with E. coli No. 29 (setting [2]), 0.2 µg/mL; in the assay on K. pneumoniae NCTC-9632, 0.39 µg/mL; in the assay with P. mirabilis 1287 (setting [1]), 0.2 µg/mL; in the assay with M. morganii ATCC-25830 it was 0.78 µg/mL; against S. marcescens IFO-12648 (setting [3]), 1.56 µg/mL. Moreover, the MIC in the assay on P. aeruginosa NCTC-10490 was 1.56 µg/mL.

Source of the values: patent US4831026A, “2-oxa-isocephem compounds, compositions containing same and processes of using” (Otsuka Pharmaceutical Co., Ltd., priority 1985, dated 1989).
